Measured values published in ChEMBL document CHEMBL1770080, “Diamide amino-imidazoles: a novel series of γ-secretase inhibitors for the treatment of Alzheimer's disease” (Bioorg Med Chem Lett, 2011).
Blank lines part the entries; values can stand above or below the molecule they belong to. Activity calls are given as the source filed them. The calls are words filed in the database; no cut-off is given here.

What was measured:
Cavia porcellus [1] = assay: Antialzheimer activity in guinea pig assessed as reduction of total amyloid beta level in brain at 5 mg/kg, sc administered 3 doses over 24 hrs measured after 3 hrs last post dose by DELFIA-based ELISA; type: functional; parameters: scale not given: the % may be the effect or the level left; conditions: route subcutaneous
Cavia porcellus [2] = assay: Antialzheimer activity in guinea pig assessed as reduction of total amyloid beta level in plasma at 1 to 32 mg/kg, sc after 1 hr by DELFIA-based ELISA; type: functional, organism-based
Cavia porcellus [3] = assay: Antialzheimer activity in guinea pig assessed as reduction of total amyloid beta level in brain at 1 to 32 mg/kg, sc after 3 to 7 hrs by DELFIA-based ELISA; type: functional, organism-based
Cavia porcellus [4] = assay: Antialzheimer activity in guinea pig assessed as reduction of total amyloid beta level in cerebral spinal fluid at 1 to 32 mg/kg, sc after 3 to 7 hrs by DELFIA-based ELISA; type: functional, organism-based
[5] = Inhibition of gamma secretase-mediated notch processing in C57BL/6 mouse fetal thymic organ cultures assessed as reduction of B and T-cell populations after […] by FACS analysis
[6] = Inhibition of gamma-secretase in guinea pig brain; parameters: species or system Cavia porcellus
Cavia porcellus [7] = assay: Antialzheimer activity in guinea pig assessed as reduction of total amyloid beta level in plasma at 3.2 mg/kg, sc after 3 hrs by DELFIA-based ELISA; type: functional, organism-based; parameters: dose 3.2 mg/kg
Cavia porcellus [8] = assay: Antialzheimer activity in sc dosed guinea pig assessed as reduction of total amyloid beta level in brain after 3 hrs by DELFIA-based ELISA; type: functional
Cavia porcellus [9] = assay: Antialzheimer activity in guinea pig assessed as reduction of total amyloid beta level in plasma at 1 to 32 mg/kg, sc after 3 hrs by DELFIA-based ELISA; type: functional; parameters: scale not given: the % may be the effect or the level left; conditions: dose mg/kg 1-32; route subcutaneous
Cavia porcellus [10] = assay: Antialzheimer activity in guinea pig assessed as reduction of total amyloid beta level in plasma at 1 to 32 mg/kg, sc after 3 to 7 hrs by DELFIA-based ELISA; type: functional, organism-based
Cavia porcellus [11] = assay: Antialzheimer activity in guinea pig assessed as reduction of total amyloid beta level in cerebral spinal fluid at 1 to 32 mg/kg, sc after 1 hr by DELFIA-based ELISA; type: functional, organism-based
Cavia porcellus [12] = assay: Antialzheimer activity in guinea pig assessed as reduction of total amyloid beta level in brain at 1 to 32 mg/kg, sc after 1 hr by DELFIA-based ELISA; type: functional, organism-based
Cavia porcellus [13] = assay: Antialzheimer activity in guinea pig assessed as reduction of total amyloid beta level in brain at 10 mg/kg, sc after 3 hrs by DELFIA-based ELISA; type: functional
Mus musculus = species: Mus musculus; assay: Antialzheimer activity in heterozygous PDAPP transgenic mouse overexpressing APP V717F mutant assessed as reduction of total amyloid beta level in brain; type: functional; conditions: read-out: MED

EC50 [5]: 1200 nM | IC50 [6]: 24 nM
SMILES: CCC[C@H](NC(=O)Cc1cc(F)cc(F)c1)C(=O)Nc1cn(C(C)(C)CNCC(C)(C)C)cn1
Activity (Cavia porcellus [1]): 50% | Activity (Cavia porcellus [2]): Active | Activity (Cavia porcellus [3]): Active | Activity (Cavia porcellus [4]): Active | Activity (Cavia porcellus [7]): Active | ED50 (Cavia porcellus [8]): 7.3 mg/kg | Activity (Cavia porcellus [9]): 60% | Activity (Cavia porcellus [10]): Active | Activity (Cavia porcellus [11]): inactive | Activity (Cavia porcellus [12]): Active

SMILES: C[C@H](NC(=O)Cc1cc(F)cc(F)c1)C(=O)Nc1cn(C(C)(C)CN2CCCC2)cn1
Activity (Cavia porcellus [13]): inactive

SMILES: C[C@H](NC(=O)Cc1cc(F)cc(F)c1)C(=O)N[C@H](C(=O)OC(C)(C)C)c1ccccc1
minimal effective dose (Mus musculus): 30 mg/kg

EC50 [5]: > 10000 nM
SMILES: CCC[C@H](NC(=O)Cc1cc(F)cc(F)c1)C(=O)Nc1cn(C(C)(C)CNC(C)C)cn1

EC50 [5]: 4300 nM
SMILES: CCC[C@H](NC(=O)Cc1cc(F)cc(F)c1)C(=O)Nc1cn(C(C)(C)CNCc2ccccc2)cn1

SMILES: CCC[C@H](NC(=O)Cc1cc(F)cc(F)c1)C(=O)Nc1cn(C(C)(C)CC(=O)OC)cn1
Activity (Cavia porcellus [13]; route subcutaneous): 32%

EC50 [5]: 4000 nM
SMILES: CCC[C@H](NC(=O)Cc1cc(F)cc(F)c1)C(=O)Nc1cn(C(C)(C)CNCC2CCOCC2)cn1

SMILES: CCC[C@H](NC(=O)Cc1cc(F)cc(F)c1)C(=O)Nc1cn(C(C)(C)CN2CCCC2)cn1
Activity (Cavia porcellus [13]; route subcutaneous): 43%

EC50 [5]: 700 nM
SMILES: CCC[C@H](NC(=O)Cc1cc(F)cc(F)c1)C(=O)Nc1cn(C(C)(C)CN(C)C)cn1

SMILES: CC(C)C[C@H](NC(=O)Cc1cc(F)cc(F)c1)C(=O)Nc1cn(C(C)(C)CN2CCCC2)cn1
Activity (Cavia porcellus [13]): inactive

SMILES: CCC[C@H](NC(=O)Cc1cc(F)cc(F)c1)C(=O)Nc1cn(C(CC)CC)cn1
Activity (Cavia porcellus [13]; route subcutaneous): <10%

EC50 [5]: 100 nM
SMILES: CCC[C@H](NC(=O)Cc1cc(F)cc(F)c1)C(=O)Nc1cn(C(C)(C)CN2CCOCC2)cn1

EC50 [5]: > 10000 nM
SMILES: CCC[C@H](NC(=O)Cc1cc(F)cc(F)c1)C(=O)Nc1cn(C(C)(C)CNC2CCC(O)CC2)cn1 (some centres undefined)
